Laboratory results as given in patent publication US9302999B2, “Substituted triazoles as herbicides” (E. I. DU PONT DE NEMOURS AND COMPANY, priority 2012, dated 2016).

Assays:
Format in all cases: in vivo
rice (Oryza sativa) = assay: Test C flooded paddy test: rice; details: scale 0 to 100 (0 no effect, 100 complete control)
Method in brief: (§1)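 Plants were grown to the 2-leaf stage, pots flooded to 3 cm above soil, and test compounds applied directly to the paddy water, with that depth held throughout. After 13 to 15 days in a greenhouse, injury was visually rated against controls on a 0 (no effect) to 100 (complete control) scale.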

[1] = tested on: wheat (Triticum aestivum); assay: Test A pre-/postemergence: wheat; details: for Wheat plant response rating: Postemergence; for Plant response rating, Wheat: Preemergence
Method in brief: (§2)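 Plants in loam–sand blend were treated with test chemicals in non-phytotoxic solvent with surfactant, either as preemergence directed soil spray or postemergence at 2–10 cm, one- to two-leaf stage. After about ten days in greenhouse, injury was rated visually against untreated controls on a 0–100 scale (100 = complete control).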

[2] = tested on: barnyardgrass (Echinochloa crus-galli); assay: Test A pre-/postemergence: barnyardgrass; details: for Barnyardgrass plant response rating: Postemergence; for Plant response rating, Barnyardgrass: Preemergence
Method in brief: as §2

[3] = tested on: velvetleaf (Abutilon theophrasti); assay: Test A pre-/postemergence: velvetleaf; details: for Velvetleaf plant response rating: Postemergence; for Plant response rating, Velvetleaf: Preemergence
Method in brief: as §2

[4] = tested on: morningglory (Ipomoea spp.); assay: Test A pre-/postemergence: morningglory; details: for Morningglory plant response rating: Postemergence; for Plant response rating, Morningglory: Preemergence
Method in brief: as §2

[5] = tested on: ducksalad (Heteranthera limosa); assay: Test C flooded paddy test: ducksalad; details: scale 0 to 100 (0 no effect, 100 complete control)
Method in brief: as §1

[6] = tested on: crabgrass, large (large crabgrass, Digitaria sanguinalis); assay: Test A pre-/postemergence: crabgrass, large; details: for Crabgrass, Large plant response rating: Postemergence; for Plant response rating, Crabgrass, Large: Preemergence
Method in brief: as §2

[7] = tested on: foxtail, giant (giant foxtail, Setaria faberii); assay: Test A pre-/postemergence: foxtail, giant; details: for Foxtail, Giant plant response rating: Postemergence; for Plant response rating, Foxtail, Giant: Preemergence
Method in brief: as §2

[8] = tested on: barnyardgrass (Echinochloa crus-galli); assay: Test C flooded paddy test: barnyardgrass; details: scale 0 to 100 (0 no effect, 100 complete control)
Method in brief: as §1

[9] = tested on: pigweed (Amaranthus retroflexus); assay: Test A pre-/postemergence: pigweed; details: for Pigweed plant response rating: Postemergence; for Plant response rating, Pigweed: Preemergence
Method in brief: as §2

[10] = tested on: sedge, umbrella (small-flower umbrella sedge, Cyperus difformis); assay: Test C flooded paddy test: sedge, umbrella; details: scale 0 to 100 (0 no effect, 100 complete control)
Method in brief: as §1

corn (Zea mays) = assay: Test A pre-/postemergence: corn; details: for Corn plant response rating: Postemergence; for Plant response rating, Corn: Preemergence
Method in brief: as §2

[11] = Flood (flooded paddy test), 62 g ai/ha, visual rating after 13 to 15 days
[12] = Flood (flooded paddy test), 125 g ai/ha, visual rating after 13 to 15 days
[13] = Flood (flooded paddy test), 250 g ai/ha, visual rating after 13 to 15 days
[14] = 125 g ai/ha, 0 to 100 scale, 0 is no effect, 100 is complete control
[15] = 500 g ai/ha, visual rating on 0 to 100 scale (0 no effect, 100 complete control), approximately ten days
[16] = 125 g ai/ha, 0 to 100 scale (0 no effect, 100 complete control)
[17] = 500 g ai/ha, 0 to 100 scale, 0 is no effect, 100 is complete control

SMILES: Cc1nn(-c2ccc(Cl)nc2)nc1C(=O)c1cccc(C(F)(F)F)c1 [Compound 72]
- Plant response rating, Rice (rice (Oryza sativa); [11]): 0
- Plant response rating, Rice (rice (Oryza sativa); [12]): 0
- Plant response rating, Rice (rice (Oryza sativa); [13]): 0
- Plant response rating, Rice (rice (Oryza sativa); Flood, 31 g ai/ha): 0
- Wheat plant response rating [1, 14]: 0
- Wheat plant response rating [1, 15]: 0
- Plant response rating, Wheat [1, 16]: 0
- Plant response rating, Wheat [1, 17]: 0
- Barnyardgrass plant response rating [2, 14]: 0
- Barnyardgrass plant response rating [2, 15]: 10
- Plant response rating, Barnyardgrass [2, 16]: 0
- Plant response rating, Barnyardgrass [2, 17]: 0
- Velvetleaf plant response rating [3, 14]: 0
- Velvetleaf plant response rating [3, 15]: 10
- Plant response rating, Velvetleaf [3, 16]: 0
- Plant response rating, Velvetleaf [3, 17]: 0
- Morningglory plant response rating [4, 14]: 0
- Morningglory plant response rating [4, 15]: 10
- Plant response rating, Morningglory [4, 16]: 0
- Plant response rating, Morningglory [4, 17]: 0
- Plant response rating, Ducksalad [5, 11]: 0
- Plant response rating, Ducksalad [5, 12]: 0
- Plant response rating, Ducksalad [5, 13]: 0
- Plant response rating, Ducksalad ([5]; Flood, 31 g ai/ha): 0
- Crabgrass, Large plant response rating [6, 14]: 0
- Crabgrass, Large plant response rating [6, 15]: 10
- Plant response rating, Crabgrass, Large [6, 16]: 0
- Plant response rating, Crabgrass, Large [6, 17]: 10
- Foxtail, Giant plant response rating [7, 14]: 0
- Foxtail, Giant plant response rating [7, 15]: 10
- Plant response rating, Foxtail, Giant [7, 16]: 0
- Plant response rating, Foxtail, Giant [7, 17]: 20
- Plant response rating, Barnyardgrass [8, 11]: 0
- Plant response rating, Barnyardgrass [8, 12]: 0
- Plant response rating, Barnyardgrass [8, 13]: 0
- Plant response rating, Barnyardgrass ([8]; Flood, 31 g ai/ha): 0
- Pigweed plant response rating [9, 14]: 10
- Pigweed plant response rating [9, 15]: 70
- Plant response rating, Pigweed [9, 16]: 0
- Plant response rating, Pigweed [9, 17]: 10
- Plant response rating, Sedge, Umbrella [10, 11]: 0
- Plant response rating, Sedge, Umbrella [10, 12]: 0
- Plant response rating, Sedge, Umbrella [10, 13]: 0
- Plant response rating, Sedge, Umbrella ([10]; Flood, 31 g ai/ha): 0
- Corn plant response rating (corn (Zea mays); [14]): 0
- Corn plant response rating (corn (Zea mays); [15]): 10
- Plant response rating, Corn (corn (Zea mays); [16]): 0
- Plant response rating, Corn (corn (Zea mays); [17]): 0

SMILES: Cc1nn(-c2ccc(C(F)(F)F)cc2)nc1Oc1ccnc(OCC(F)(F)F)c1 [Compound 77]
- Plant response rating, Rice (rice (Oryza sativa); [12]): 0
- Plant response rating, Rice (rice (Oryza sativa); [13]): 0
- Plant response rating, Rice (rice (Oryza sativa); Flood, 31 g ai/ha): 0
- Plant response rating, Rice (rice (Oryza sativa); Flood, 62 g ai/ha): 0
- Wheat plant response rating [1, 14]: 0
- Wheat plant response rating [1, 15]: 0
- Plant response rating, Wheat [1, 16]: 0
- Plant response rating, Wheat [1, 17]: 0
- Barnyardgrass plant response rating [2, 14]: 0
- Barnyardgrass plant response rating [2, 15]: 10
- Plant response rating, Barnyardgrass [2, 16]: 0
- Plant response rating, Barnyardgrass [2, 17]: 0
- Velvetleaf plant response rating [3, 14]: 10
- Velvetleaf plant response rating [3, 15]: 10
- Plant response rating, Velvetleaf [3, 16]: 0
- Plant response rating, Velvetleaf [3, 17]: 0
- Morningglory plant response rating [4, 14]: 10
- Morningglory plant response rating [4, 15]: 10
- Plant response rating, Morningglory [4, 16]: 0
- Plant response rating, Morningglory [4, 17]: 0
- Plant response rating, Ducksalad [5, 12]: 0
- Plant response rating, Ducksalad [5, 13]: 0
- Plant response rating, Ducksalad ([5]; Flood, 31 g ai/ha): 0
- Plant response rating, Ducksalad ([5]; Flood, 62 g ai/ha): 0
- Crabgrass, Large plant response rating [6, 14]: 10
- Crabgrass, Large plant response rating [6, 15]: 20
- Plant response rating, Crabgrass, Large [6, 16]: 0
- Plant response rating, Crabgrass, Large [6, 17]: 10
- Foxtail, Giant plant response rating [7, 14]: 10
- Foxtail, Giant plant response rating [7, 15]: 20
- Plant response rating, Foxtail, Giant [7, 16]: 0
- Plant response rating, Foxtail, Giant [7, 17]: 10
- Plant response rating, Barnyardgrass [8, 12]: 0
- Plant response rating, Barnyardgrass [8, 13]: 0
- Plant response rating, Barnyardgrass ([8]; Flood, 31 g ai/ha): 0
- Plant response rating, Barnyardgrass ([8]; Flood, 62 g ai/ha): 0
- Pigweed plant response rating [9, 14]: 90
- Pigweed plant response rating [9, 15]: 100
- Plant response rating, Pigweed [9, 16]: 0
- Plant response rating, Pigweed [9, 17]: 10
- Plant response rating, Sedge, Umbrella [10, 12]: 0
- Plant response rating, Sedge, Umbrella [10, 13]: 0
- Plant response rating, Sedge, Umbrella ([10]; Flood, 31 g ai/ha): 0
- Plant response rating, Sedge, Umbrella ([10]; Flood, 62 g ai/ha): 0
- Corn plant response rating (corn (Zea mays); [14]): 0
- Corn plant response rating (corn (Zea mays); [15]): 10
- Plant response rating, Corn (corn (Zea mays); [16]): 0
- Plant response rating, Corn (corn (Zea mays); [17]): 0
